Patent publication US20060281763A1, “Carboxamide inhibitors of TGFbeta” (priority 2005, published 2006)

Target: T1, TGFβ R1 (Homo sapiens, UniProt P36897)
T1 sequence (P36897 34-503): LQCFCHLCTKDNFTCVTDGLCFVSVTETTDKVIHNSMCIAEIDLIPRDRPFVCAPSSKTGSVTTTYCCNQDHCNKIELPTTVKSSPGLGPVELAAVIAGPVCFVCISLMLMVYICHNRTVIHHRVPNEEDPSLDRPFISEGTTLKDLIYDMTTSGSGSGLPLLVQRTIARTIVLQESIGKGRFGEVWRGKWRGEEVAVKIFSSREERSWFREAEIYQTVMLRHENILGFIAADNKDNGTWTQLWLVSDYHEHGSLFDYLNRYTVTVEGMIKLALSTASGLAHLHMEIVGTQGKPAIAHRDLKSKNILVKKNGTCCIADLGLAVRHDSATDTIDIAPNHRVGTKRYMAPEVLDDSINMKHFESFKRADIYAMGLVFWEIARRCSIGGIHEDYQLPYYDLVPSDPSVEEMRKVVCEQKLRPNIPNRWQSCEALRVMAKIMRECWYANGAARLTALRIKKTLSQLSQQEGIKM
Test: TGFβ R1 autophosphorylation protocol (33P-ATP, phosphocellulose filter plate)
Assay type: biochemical
Settings: 10 uM ATP, 170 nM TGFβ R1, 20 minutes at room temperature, read-out: IC50 for Kinase Inhibition
Summary of the method: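 Incorporation of 33P from γ-33P-ATP (10 uM ATP final) into the kinase itself (170 nM) measured by phosphocellulose capture and scintillation counting. Incubation 20 min at room temperature in 20 mM MOPS pH 7 with […]; final DMSO ≤1%.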

| IC50 [nM] | SMILES |
| --- | --- |
| 90 | COc1cnc(-c2cc(Cl)ccc2F)nc1Nc1ccncc1C(=O)N[C@H]1CN[C@@H](C(=O)N(C)C)C1 [Compound 107, 4-[2-(5-Chloro-2-fluoro-phenyl)-5-methoxy-pyrimidin-4-ylamino]-N-(5-dimethylcarbamoyl-pyrrolidin-3-yl)-nicotinamide] |
| 2500 | O=C(NC1CC1)c1cnccc1Nc1nc(-c2cc(Cl)ccc2F)ncc1Br [Compound 108, 4-[5-Bromo-2-(5-chloro-2-fluoro-phenyl)-pyrimidin-4-ylamino]-N-cyclopropyl-nicotinamide] |
| 330 | COc1cnc(-c2cc(Cl)ccc2F)nc1Nc1ccncc1C(=O)NCCCN1CC[C@H](O)C1 [Compound 109, 4-[2-(5-Chloro-2-fluoro-phenyl)-5-methoxy-pyrimidin-4-ylamino]-N-[3-(3-hydroxy-pyrolidin-1-yl)-propyl]-nicotinamide] |
| 20 | CC(C)c1cnc(-c2cc(Cl)ccc2F)nc1Nc1ccncc1C(=O)NC1CNC1 [Compound 111, N-Azetidin-3-yl-4-[2-(5-chloro-2-fluoro-phenyl)-5-isopropyl-pyrimidin-4-ylamino]-nicotinamide] |
| 90 | COc1cnc(-c2cc(Cl)ccc2F)nc1Nc1ccncc1C(=O)NCCNCC(C)(C)O [Compound 112, 4-[2-(5-Chloro-2-fluoro-phenyl)-5-methoxy-pyrimidin-4-ylamino]-N-[2-(2-hydroxy-2-methyl-propylamino)-ethyl]-nicotinamide] |
| 40 | CC(C)c1cnc(-c2cc(Cl)ccc2F)nc1Nc1ccncc1C(=O)NCCCN1CC[C@@H](O)C1 [Compound 113, 4-[2-(5-Chloro-2-fluoro-phenyl)-5-isopropyl-pyrimidin-4-ylamino]-N-[3-(3-hydroxy-pyrrolidin-1-yl)-propyl]-nicotinamide] |
| 3080 | COc1cnc(-c2cc(Cl)ccc2F)nc1Nc1cc[n+]([O-])cc1C(=O)NC1CC1 [Compound 114, 4-[2-(5-Chloro-2-fluoro-phenyl)-5-methoxy-pyrimidin-4-ylamino]-N-cyclopropyl-1-oxy-nicotinamide] |
| 7370 | COc1cnc(-c2cc(Cl)ccc2F)nc1Nc1ccncc1C(=O)N1CCN(CCO)CC1 [Compound 116, {4-[2-(5-Chloro-2-fluoro-phenyl)5-methoxy-pyrimidin-4-ylamino]pyridin-3-yl}-[4-(2-hydroxy-ethyl)-piperazin-1-yl]-methanone] |
| 6780 | COc1cnc(-c2cc(Cl)ccc2F)nc1Nc1ccncc1C(=O)N1CCNCC1 [Compound 117, {4-[2-(5-Chloro-2-fluoro-phenyl)-5-methoxy-pyrimidin-4-ylamino]-pyridin-3-yl}-piperazin-1-yl-methanone] |
| 6570 | COc1cnc(-c2cc(Cl)ccc2F)nc1Nc1ccncc1C(=O)N1CCN(C)CC1 [Compound 118, {4-[2-(5-Chloro-2-fluoro-phenyl)-5-methoxy-pyrimidin-4-ylamino]-pyridin-3-yl}-(4-methyl-piperazin-1-yl)-methanone] |
| 155 | CNC(=O)c1cnccc1Nc1nc(-c2cc(Cl)ccc2F)ncc1Cl [Compound 119, 4-[5-Chloro-2-(5-chloro-2-fluoro-phenyl)-pyrimidin-4-ylamino]-N-methyl-nicotinamide] |
| 190 | CONC(=O)c1cnccc1Nc1nc(-c2cc(Cl)ccc2F)ncc1OC [Compound 120, 4-[2-(5-Chloro-2-fluoro-phenyl)-5-methoxy-pyrimidin-4-ylamino]-N-methoxy-nicotinamide] |
| 5770 | CCOP(=O)(OCC)O[C@@H](C)CNC(=O)c1cnccc1Nc1nc(-c2cc(Cl)ccc2F)ncc1OC [Compound 121, Phosphoric acid 2-({4-[2-(5-chloro-2-fluoro-phenyl)-5-methoxy-pyrimidin-4-ylamino]-pyridine-3-carbonyl}-amino)-1-methyl-ethyl ester diethyl ester] |
| 53 | CNC(=O)[C@@H]1CCCN1CCCNC(=O)c1cnccc1Nc1nc(-c2cc(Cl)ccc2F)ncc1OC [Compound 122, 4-[2-(5-Chloro-2-fluoro-phenyl)-5-methoxy-pyrimidin-4-ylamino]-N-[3-(2-methylcarbamoyl-pyrrolidin-1-yl)-propyl]-nicotinamide] |
| 23 | COc1cnc(-c2cc(Cl)ccc2F)nc1Nc1ccncc1C(=O)NCCCN1CCC[C@H]1C(N)=O [Compound 123, N-[3-(2-Carbamoyl-pyrrolidin-1-yl)-propyl]-4-[2-(5-chloro-2-fluoro-phenyl)-5-methoxy-pyrimidin-4-ylamino]-nicotinamide] |
| 42 | COC[C@H]1OC(CCNCCCNC(=O)c2cnccc2Nc2nc(-c3cc(Cl)ccc3F)ncc2OC)[C@H](OC)[C@@H](OC)[C@@H]1OC (some centres unmarked) [Compound 124, 4-[2-(5-Chloro-2-fluoro-phenyl)-5-methoxy-pyrimidin-4-ylamino]-N-{3-[2-(3,4,5-trimethoxy-6-methoxymethyl-tetrahydro-pyran-2-yl)-ethylamino]-propyl}-nicotinamide] |
| 32 | COC[C@@H]1OC(CCNCCCNC(=O)c2cnccc2Nc2nc(-c3cc(Cl)ccc3F)ncc2OC)[C@@H](OC)[C@H](OC)[C@H]1OC (some centres unmarked) [Compound 125, 4-[2-(5-Chloro-2-fluoro-phenyl)-5-methoxy-pyrimidin-4-ylamino]-N-{3-[2-(3,4,5-trimethoxy-6-methoxymethyl-tetrahydro-pyran-2-yl)-ethylamino]-propyl}-nicotinamide] |
| 50 | COC[C@H]1OC(CCNCCCNC(=O)c2cnccc2Nc2nc(-c3cc(Cl)ccc3F)ncc2OC)[C@H](OC)[C@@H](OC)[C@H]1OC (some centres unmarked) [Compound 126] |
| 63 | COc1cnc(-c2cc(Cl)ccc2F)nc1Nc1ccncc1C(=O)NCCCNCCC1O[C@H](CO)[C@@H](O)[C@H](O)[C@H]1O (some centres unmarked) [Compound 127, 4-[2-(5-Chloro-2-fluoro-phenyl)-5-methoxy-pyrimidin-4-ylamino]-N-{3-[2-(3,4,5-trihydroxy-6-hydroxymethyl-tetrahydro-pyran-2-yl)-ethylamino]-propyl}-nicotinamide] |
| 8 | COc1cnc(-c2cc(Cl)ccc2F)nc1Nc1ccncc1C(=O)N[C@H]1CCNC1 [Compound 128, 4-[2-(5-Chloro-2-fluoro-phenyl)-5-methoxy-pyrimidin-4-ylamino]-N-pyrrolidin-3-yl-nicotinamide] |
| 59 | COc1cnc(-c2cc(Cl)ccc2F)nc1Nc1ccncc1C(=O)NOCC1CC1 [Compound 129, 4-[2-(5-Chloro-2-fluoro-phenyl)-5-methoxy-pyrimidin-4-ylamino]-N-cyclopropylmethoxy-nicotinamide] |
| 38 | COc1cnc(-c2cc(Cl)ccc2F)nc1Nc1ccncc1C(=O)NCC(C)(C)N [Compound 130, N-(2-Amino-2-methyl-propyl)-4-[2-(5-chloro-2-fluoro-phenyl)-5-methoxy-pyrimidin-4-ylamino]-nicotioamide] |
| 21 | COc1cnc(-c2cc(Cl)ccc2F)nc1Nc1ccncc1C(=O)NCCCNC(C)C [Compound 131, 4-[2-(5-Chloro-2-fluoro-phenyl)-5-methoxy-pyrimidin-4-ylamino]-N-(3-isoopropyl-amino-propyl)-nicotinamide] |
| 327 | COc1cnc(-c2cc(Cl)ccc2F)nc1Nc1ccncc1C(=O)NCCCNC(=O)COC1O[C@H](COC(C)=O)[C@@H](OC(C)=O)[C@H](OC(C)=O)[C@H]1OC(C)=O (some centres unmarked) [Compound 133] |
| 12 | COc1cnc(-c2cc(Cl)ccc2F)nc1Nc1ccncc1C(=O)NCCCNCCOC1O[C@H](CO)[C@@H](O)[C@H](O)[C@H]1O (some centres unmarked) [Compound 134, 4-[2-(5-Chloro-2-fluoro-phenyl)-5-methoxy-pyrimidin-4-ylamino]-N-{3-[2-(3,4,5-trihydroxy-6-hydroxymethyl-tetrahydro-pyran-2-yloxy)-ethylamino]-propyl}-nicotinamide] |
| 7 | COc1cnc(-c2cc(Cl)ccc2F)nc1Nc1ccncc1C(=O)NCCNCCC1O[C@H](CO)[C@@H](O)[C@H](O)[C@H]1O (some centres unmarked) [Compound 136, 4-[2-(5-Chloro-2-fluoro-phenyl)-5-methoxy-pyrimidin-4-ylamino]-N-{2-[2-(3,4,5-trihydroxy-6-hydroxymethyl-tetrahydro-pyran-2-yl)-ethylamino]-ethyl}-nicotinamide] |
| 18 | COc1cnc(-c2cc(Cl)ccc2F)nc1Nc1ccncc1C(=O)NC1CCN(CCC2O[C@H](CO)[C@@H](O)[C@H](O)[C@H]2O)CC1 (some centres unmarked) [Compound 137, 4-[2-(5-Chloro-2-fluoro-phenyl)-5-methoxy-pyrimidin-4-ylamino]-N-{1-[2-(3,4,5-trihydroxy-6-hydroxymethyl-tetrahydro-pyran-2-yl)-ethyl]-piperidin-4-yl}-nicotinamide] |
| 24 | COc1cnc(-c2cc(Cl)ccc2F)nc1Nc1ccncc1C(=O)N[C@@H]1CCNC1 [Compound 138, 4-[2-(5-Chloro-2-fluoro-phenyl)-5-methoxy-pyrimidin-4-ylamino]-N-pyrrolidin-3-yl-nicotinamide] |
| 7 | COc1cnc(-c2cc(Cl)ccc2F)nc1Nc1ccncc1C(=O)NCCCNCCO[C@H]1O[C@H](CO)[C@H](O)[C@H](O)[C@H]1O [Compound 139, 4-[2-(5-Chloro-2-fluoro-phenyl)-5-methoxy-pyrimidin-4-ylamino]-N-{3-[2-(3,4,5-trihydroxy-6-hydroxymethyl-tetrahydro-pyran-2-yloxy)-ethylamino]-propyl}-nicotinamide] |
